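Where inhibition never reached the appropriate level, the endpoint shown equals the highest concentration tested. Otherwise, values were interpolated linearly from a five-concentration, 48-hour dose response in 96-well plates. Abbreviation: GI50, concentration required for 50% inhibition of growth.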 Activity calls are given as the source filed them. No stated cut-off is given here; in the data, active = GI50 up to about 1.1 µM and inactive = higher.
Legend:
Assay in all cases: DTP human tumour cell line panel, 48 h
786-0 = system: 786-0
A498 = system: A498
A549 = system: A549
ACHN = system: ACHN
BT-549 = system: BT-549
CAKI-1 = system: CAKI-1
COLO 205 = system: COLO 205
DU-145 = system: DU-145
HCC 2998 = system: HCC 2998
HCT-116 = system: HCT-116
HCT-15 = system: HCT-15
HL-60 = system: HL-60
HOP-62 = system: HOP-62
HOP-92 = system: HOP-92
HT-29 = system: HT-29
Hs-578T = system: Hs-578T
IGROV-1 = system: IGROV-1
KM12 = system: KM12
LOX IMVI = system: LOX IMVI
M14 = system: M14
MCF7 = system: MCF7
MDA-MB-231 = system: MDA-MB-231
MDA-MB-435 = system: MDA-MB-435
MDA-N = system: MDA-N
MOLT-4 = system: MOLT-4
Malme-3M = system: Malme-3M
NCI-H226 = system: NCI-H226
NCI-H23 = system: NCI-H23
NCI-H460 = system: NCI-H460
NCI-H522 = system: NCI-H522
NCI/ADR-RES = system: NCI/ADR-RES
OVCAR-3 = system: OVCAR-3
OVCAR-4 = system: OVCAR-4
OVCAR-5 = system: OVCAR-5
OVCAR-8 = system: OVCAR-8
PC-3 = system: PC-3
RPMI-8226 = system: RPMI-8226
RXF 393 = system: RXF 393
SF-268 = system: SF-268
SF-295 = system: SF-295
SF-539 = system: SF-539
SK-MEL-28 = system: SK-MEL-28
SK-MEL-2 = system: SK-MEL-2
SK-MEL-5 = system: SK-MEL-5
SK-OV-3 = system: SK-OV-3
SN12C = system: SN12C
SNB-19 = system: SNB-19
SNB-75 = system: SNB-75
SR = system: SR
SW-620 = system: SW-620
T47D = system: T47D
TK-10 = system: TK-10
U-251 = system: U-251
UACC-257 = system: UACC-257
UACC-62 = system: UACC-62
UO-31 = system: UO-31
CCRF-CEM = system: CCRF-CEM
EKVX = system: EKVX
K562 = system: K562

Measured: GI50

Fc1cc2nc3n(c2cc1F)C(c1c(F)cccc1F)SC3 (centres undefined)
44 µM: HCT-15
inactive: 786-0 24.3 µM | A498 29.8 µM | A549 37.1 µM | ACHN 61 µM | BT-549 53.2 µM | CAKI-1 34.3 µM | COLO 205 31.3 µM | DU-145 87.5 µM | HCC 2998 68.4 µM | HCT-116 21.8 µM | HL-60 16.8 µM | HOP-62 67.9 µM | HOP-92 38.8 µM | HT-29 34.8 µM | Hs-578T 50.1 µM | IGROV-1 47.9 µM | KM12 41.1 µM | LOX IMVI 38.8 µM | M14 30.5 µM | MCF7 31.4 µM | MDA-MB-231 84.5 µM | MDA-MB-435 35.3 µM | MDA-N 35.6 µM | MOLT-4 27.1 µM | Malme-3M 50.8 µM | NCI-H226 52 µM | NCI-H23 43.9 µM | NCI-H460 36.8 µM | NCI-H522 24.9 µM | NCI/ADR-RES 35.4 µM | OVCAR-3 34.4 µM | OVCAR-4 42.1 µM | OVCAR-5 53.3 µM | OVCAR-8 42 µM | PC-3 37.3 µM | RPMI-8226 34.5 µM | RXF 393 26.9 µM | SF-268 74 µM | SF-295 37.2 µM | SF-539 39.4 µM | SK-MEL-28 43 µM | SK-MEL-2 38.2 µM | SK-MEL-5 17.3 µM | SK-OV-3 42.7 µM | SN12C 51.9 µM | SNB-19 > 100 µM | SNB-75 31.4 µM | SR 30.1 µM | SW-620 45 µM | T47D 37 µM | TK-10 45.4 µM | U-251 57.3 µM | UACC-257 46.6 µM | UACC-62 38.8 µM | UO-31 37.8 µM

CC(=O)c1c(SCCN2CCCC2)n(-c2ccccc2)c(=S)n(-c2ccccc2)c1=O
inactive: 786-0 1.6 µM | A498 14.3 µM | A549 5.82 µM | ACHN 1.72 µM | BT-549 14.5 µM | CAKI-1 4.34 µM | CCRF-CEM 1.7 µM | COLO 205 1.76 µM | DU-145 2.75 µM | EKVX 17 µM | HCC 2998 3.1 µM | HCT-116 6.73 µM | HL-60 3.55 µM | HOP-62 22.4 µM | HOP-92 3.27 µM | HT-29 6.62 µM | Hs-578T 17.6 µM | IGROV-1 7.03 µM | K562 2.72 µM | KM12 23.2 µM | LOX IMVI 2.49 µM | M14 2.39 µM | MCF7 1.33 µM | MDA-MB-231 8.83 µM | MDA-MB-435 5.9 µM | MDA-N 7.03 µM | MOLT-4 2.41 µM | Malme-3M 3.85 µM | NCI-H226 20.9 µM | NCI-H23 17.4 µM | NCI-H460 17.9 µM | NCI-H522 2.48 µM | NCI/ADR-RES 26.9 µM | OVCAR-3 2.5 µM | OVCAR-4 29 µM | OVCAR-5 33.7 µM | OVCAR-8 9.48 µM | PC-3 3.56 µM | RPMI-8226 1.51 µM | RXF 393 2.3 µM | SF-268 16.4 µM | SF-295 > 76 µM | SF-539 6.12 µM | SK-MEL-28 6.11 µM | SK-MEL-2 21.6 µM | SK-MEL-5 8.55 µM | SK-OV-3 45.3 µM | SN12C 7.16 µM | SNB-19 28.4 µM | SNB-75 14.6 µM | SR 2.28 µM | SW-620 2.34 µM | T47D 2.11 µM | TK-10 3.64 µM | U-251 21.1 µM | UACC-257 3.46 µM | UACC-62 6.93 µM | UO-31 1.4 µM
4.01 µM: HCT-15

Nc1nc(N)nc(-c2cnc3ccccc3c2)n1
inactive: 786-0 > 100 µM | A498 > 100 µM | A549 > 100 µM | ACHN > 100 µM | BT-549 > 100 µM | CAKI-1 > 100 µM | CCRF-CEM 13.4 µM | COLO 205 > 100 µM | DU-145 > 100 µM | EKVX 38.4 µM | HCC 2998 > 100 µM | HCT-116 > 100 µM | HOP-62 > 100 µM | HOP-92 73.5 µM | Hs-578T > 100 µM | IGROV-1 58.6 µM | K562 > 100 µM | KM12 > 100 µM | LOX IMVI > 100 µM | M14 > 100 µM | MCF7 > 100 µM | MDA-MB-231 86.7 µM | MDA-MB-435 > 100 µM | MDA-N > 100 µM | MOLT-4 20.7 µM | Malme-3M > 100 µM | NCI-H226 > 100 µM | NCI-H23 > 100 µM | NCI-H460 > 100 µM | NCI-H522 > 100 µM | NCI/ADR-RES > 100 µM | OVCAR-3 > 100 µM | OVCAR-5 39.5 µM | OVCAR-8 > 100 µM | PC-3 > 100 µM | RXF 393 94.2 µM | SF-268 > 100 µM | SF-295 > 100 µM | SF-539 > 100 µM | SK-MEL-28 > 100 µM | SK-MEL-2 > 100 µM | SK-OV-3 87.9 µM | SN12C > 100 µM | SNB-19 > 100 µM | SNB-75 85.7 µM | SR 37 µM | SW-620 > 100 µM | T47D > 100 µM | TK-10 88.9 µM | U-251 > 100 µM | UACC-257 > 100 µM | UACC-62 72.1 µM | UO-31 > 100 µM
> 100 µM: HCT-15

From ChEMBL document CHEMBL1201862, “PubChem BioAssay data set” (2004)
